One assay concerns the target T1, Human 5-HT6 Receptor (Homo sapiens, UniProt P50406).
T1 construct: host or cells: HEK293
Kind of assay: Nova Screen binding assay for human 5-HT6 receptor ([3H]LSD radioligand binding). To be noted: human recombinant receptor expressed in HEK293 cells, [3H]LSD 1.5 nM; for inhibition at 0.1 µM: read-out: % Inhibition at 100 nM, radioligand binding data at 5ht6R (h); for Ki: 60 minutes at 37° C., read-out: Ki, radioligand binding data at 5ht6R (h). On the procedure:
Nova Screen Binding Assay for Human 5-HT6 Receptor
Pharmacological data Compounds can be tested according to the following the procedures.
Receptor source: Human recombinant expressed in HEK293 cells
Radioligand: [^3H]LSD (60-80 Ci/mmol)
Final ligand concentration—[1.5 nM]
Non-specific determinant: Methiothepin mesylate—[0.1 μM]
Reference compound: Methiothepin mesylate
Positive control: Methiothepin mesylate
Incubation conditions: Reactions were carried out in 50 mM TRIS-HCl (pH 7.4) containing 10 mM MgCl2, 0.5 mM EDTA for 60 minutes at 37° C. The reaction was terminated by rapid vacuum filtration onto glass fiber filters. Radioactivity trapped onto the filters was determined and compared to control values in order to ascertain any interactions of test compound(s) with the cloned serotonin -5HT6 binding site.
Literature Reference: Monsma F. J. Jr., et al., Molecular Cloning and Expression of Novel Serotonin Receptor with High Affinity for Tricyclic Psychotropic Drugs. Mol. Pharmacol. (43): 320-327 (1993).

In the next assay the test system is Male Wistar rats. In words: Object recognition task model. It counts as in vivo, rat. To be noted: orally or i.p. one hour before T1 and T2; T2 24 hour after T1; example 6 at 10 mg/Kg orally (FIG. 1). On the procedure: Object Recognition Task Model
The cognition-enhancing properties of compounds of this invention were estimated using a model of animal cognition: the object recognition task model.
Male wistar rats (230-280 g) obtained from N I.N. (National Institute of Nutrition, Hyderabad, India) were used as an experimental animal. Four animals were housed in each cage. Animals were kept on 20% food deprivation before one day and given water ad libitum throughout the experiment, and maintained on a 12 h light/dark cycle. Also the rats were habituated to individual arenas for 1 hour in absence of any objects.
One group of 12 rats received vehicle (1 mL/Kg) orally and another set of animals received compound of the formula (I) either orally or i.p., before one hour of the familiar (T1) and choice trial (T2). The experiment was carried out in a 50×50×50 Cm open field made up of acrylic. In the familiarization phase, (T1), the rats were placed individually in the open field for 3 min., in which two identical objects (plastic bottles, 12.5 Cm height×5.5 Cm diameter) covered in yellow masking tape alone (a1 and a2) were positioned in two adjacent corners, 10 Cm. from the walls. After 24 hour of the (T1) trial for long-term memory test, the same rats were placed in the same arena as they were placed in T1 trial. […]

The next assay has as its system Adult male Wistar rats. Kind of assay: Passive avoidance (single-trial, step through, light-dark paradigm). Format: in vivo, rat. As to conditions: 10 mg/Kg oral dose; recall 24 h, 72 h and 7 day post-training (FIG. 2). The source says:
Passive Avoidance Apparatus Animals were trained in a single-trial, step through, light-dark passive avoidance paradigm. The training apparatus consisted of a chamber 300 mm in length, 260 mm wide, and 270 mm in height, constructed to established designs. The front and top were transparent, allowing the experimenter to observe the behavior of the animal inside the apparatus. The chamber was divided into two compartments, separated by a central shutter that contained a small opening 50 mm wide and 75 mm high set close to the front of the chamber. The smaller of the compartments measured […] in width and contained a low-power (6V) illumination source. The larger compartment measured 210 mm in width and was not illuminated. […] A resistance range of […] was calculated for a control group of rats and the apparatus was calibrated accordingly. […] Latency to enter the dark chamber was recorded (usually <20 s), and having completely entered the dark compartment an inescapable foot shock of 0.75 mA for 3 s was administered to the animal. […] Recall of this inhibitory stimulus was evaluated 24 h, 72 h and on 7 day post-training by returning the animal into the light chamber and recording their latency to enter the dark chamber, a criterion time of 300 s was employed.

This note sets out measurements from patent US7998981B2, “Aminoaryl sulphonamide derivatives as functional 5-HT6 ligands” (Suven Life Sciences Limited, priority 2005, dated 2011).

A word on the inhibition: it is the relative decrease from the control value, in per cent. A word on the Ki: it is a dissociation constant, usually derived from enzyme kinetics or from competition with a known ligand. The term % Inhibition denotes the relative decrease from the control value, in per cent.

T1 sequence (P50406 whole entry): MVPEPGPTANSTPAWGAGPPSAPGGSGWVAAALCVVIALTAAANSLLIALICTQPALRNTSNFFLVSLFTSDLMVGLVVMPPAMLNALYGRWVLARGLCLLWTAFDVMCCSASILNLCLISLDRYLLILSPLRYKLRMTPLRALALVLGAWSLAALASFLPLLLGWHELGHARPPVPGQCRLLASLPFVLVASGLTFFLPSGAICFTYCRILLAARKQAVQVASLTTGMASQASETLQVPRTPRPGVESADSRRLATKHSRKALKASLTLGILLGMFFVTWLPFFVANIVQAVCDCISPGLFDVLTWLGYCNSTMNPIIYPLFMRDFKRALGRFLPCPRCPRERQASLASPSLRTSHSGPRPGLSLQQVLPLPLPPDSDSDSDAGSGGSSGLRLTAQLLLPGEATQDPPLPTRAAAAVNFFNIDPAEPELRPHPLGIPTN

For `CN1CCC(Nc2cccc(S(=O)(=O)n3ccc4ccccc43)c2)CC1` [Example 1, 1-[3-(1-Methylpiperidin-4-yl)amino]benzenesulfonyl-1H-indole], the inhibition at 0.1 µM at Human 5-HT6 Receptor (100 nM) came to 96.8%. The Ki at Human 5-HT6 Receptor is 3.19 nM.
On to `COc1ccc2c(ccn2S(=O)(=O)c2cccc(NC3CCN(C)CC3)c2)c1` [Example 2, 1-[3-(1-Methylpiperidin-4-yl)amino]benzenesulfonyl-5-methoxyindole], for which the inhibition at 0.1 µM on Human 5-HT6 Receptor (100 nM) amounted to 82.2%. Further, the Ki on Human 5-HT6 Receptor amounted to 12.5 nM.
The like results for `CN1CCC(Nc2cccc(S(=O)(=O)n3ccc4cc(Br)ccc43)c2)CC1` [Example 4, 1-[3-(1-Methylpiperidin-4-yl)amino]benzenesulfonyl-5-bromoindole] were, in that order, 92.2% and 10.3 nM.
On to `CN1CCC(Nc2cccc(S(=O)(=O)n3ccc4cc(F)ccc43)c2)CC1` [Example 6, 1-[3-(1-Methylpiperidin-4-yl)amino]benzenesulfonyl-5-fluoroindole], for which the inhibition at 0.1 µM on Human 5-HT6 Receptor (100 nM) was 93.2%. Further, the Ki on Human 5-HT6 Receptor turned out to be 7 nM. Moreover, in the assay on Male Wistar rats, the “novel object recognition (exploration time with novel object, discrimination index)” value was “positive effects”. The “latency to reach the dark zone” value in the assay with Adult male Wistar rats was “significant increase in latency”.
For the compound `COc1ccc2c(ccn2S(=O)(=O)c2ccc(C)c(NC3CCN(C)CC3)c2)c1` [Example 10, 1-[3-(1-Methylpiperidin-4-yl)amino-4-methyl]benzenesulfonyl-5-methoxyindole], the inhibition at 0.1 µM on Human 5-HT6 Receptor (100 nM) stood at 85.3%. The Ki on Human 5-HT6 Receptor came out at 20.9 nM.
For the compound `COc1ccc(S(=O)(=O)n2ccc3ccccc32)cc1NC1CCN(C)CC1` [Example 17, 1-[3-(1-Methylpiperidin-4-yl)amino-4-methoxy]benzenesulfonyl-1H-indole], the inhibition at 0.1 µM at Human 5-HT6 Receptor (100 nM) turned out to be 101%. Further, on Human 5-HT6 Receptor, the inhibition constant (Ki) is 1.29 nM.
In the case of `CN1CCC(Nc2cc(S(=O)(=O)n3ccc4ccccc43)ccc2F)CC1` [Example 25, 1-[3-(1-Methylpiperidin-4-yl)amino-4-Fluoro]benzenesulfonylindole], on Human 5-HT6 Receptor (100 nM), the “% Inhibition at 100 nM, radioligand binding data at 5ht6R (h)” value came out at 99.33%.
